Experimental data taken from patent publication US20240270724A1, “GALECTIN-3 INHIBITING C-GLYCOSIDES” (GLYCOMIMETICS, INC., priority 2021, published 2024).

Key:
galectin-3 = biological target: T1, galectin-3 (Homo sapiens, UniProt P17931); assay: Galectin-3 activity ELISA assay: inhibition of galectin-3 binding to immobilized Galβ1-3GlcNAc polymer; settings: inhibition of galectin-3 binding to Galβ1-3GlcNAc polymer, average (± standard deviation) where assayed more than once
T1 construct: purchased IBL IBATGP0414
Source text: An inhibition assay may be used to screen for antagonists of galectin-3. For example, an assay may be performed to characterize the capability of a compound described herein to inhibit interaction of galectin-3 with a Galβ1-3GlcNAc carbohydrate structure. The inhibition assay may be a competitive binding assay, which allows the determination of IC50 values. By way of example, a Galβ1-3GlcNAc polymer may be immobilized onto a matrix; a composition may be added to reduce nonspecific binding; the immobilized Galβ1-3GlcNAc polymer may be contacted with the candidate compound in the presence of galectin-3 group under conditions and for a time sufficient to permit galectin-3 to bind to the immobilized Galβ1-3GlcNAc polymer; the immobilized Galβ1-3GlcNAc polymer may be washed; and the amount of galectin-3 bound to the immobilized Galβ1-3GlcNAc polymer may be detected. Variations of such steps can be readily and routinely accomplished by a person of ordinary skill in the art.
Galectin-3 antagonists were evaluated for their ability to inhibit binding of galectin-3 to a Galβ1-3GlcNAc carbohydrate structure. The detailed protocol was as follows. A 1 μg/mL suspension of a Galβ1-3GlcNAcβ1-3Galβ1-4GlcNAcβ-PAA-biotin polymer (Glycotech, catalog number 01-096) was prepared. A 100 μL aliquot of the polymer was added to the wells of a 96-well streptavidin-coated plate (R&D Systems, catalog number CP004). A 100 μL aliquot of 1× Tris Buffered Saline (TBS, Sigma, catalog number T5912-10X) was added to control wells. The polymer was allowed to bind to the streptavidin-coated wells for 1.5 hours at room temperature. The contents of the wells were discarded, and 200 μL of 1×TBS containing 1% bovine serum albumin (BSA) was added to each well as a blocking reagent and the plate was kept at room temperature for 30 minutes. The wells were washed three times with 1×TBS containing 0.1% BSA. A serial dilution of test compounds was prepared in a separate V-bottom plate (Corning, catalog number 3897). A 75 μL aliquot of the highest concentration of the compound to be tested was added to the first well in a column of the V-bottom plate, then 15 μL were serially transferred into 60 μL 1×TBS through the remaining wells in the column to generate a 1 to 5 serial dilution. A 60 μL aliquot of 2 μg/mL galectin-3 (IBL, catalog number IBATGP0414) was added to each well in the V-bottom plate. A 100 μL aliquot of the galectin-3 test compound mixture was transferred from the V-bottom plate into the assay plate containing the Galβ1-3GlcNAc polymer. Four sets of control wells in the assay plate were prepared in duplicate containing 1) both Galβ1-3GlcNAc polymer and galectin-3, 2) neither the polymer nor galectin-3, 3) galectin-3 only, no polymer, or 4) polymer only, no galectin-3. The plate was gently rocked for 1.5 hours at room temperature. The wells were washed four times with TBS/0.1% BSA. A 100 μL aliquot of anti-galectin-3 antibody conjugated to horse radish peroxidase (R&D Systems, from DGAL30 kit) was added to each well, and the plate was kept at room temperature for 1 hour. The wells were washed four times with TBS/0.1% BSA. A 100 μL aliquot of TMB substrate solution was added to each well. The TMB substrate solution was prepared by making a 1:1 mixture of TMB Peroxidase Substrate (KPL, catalog number 5120-0048) and Peroxidase Substrate Solution B (KPL, catalog number 5120-0037). The plate was kept at room temperature for 10 to 20 minutes. The color development was stopped by adding 100 uL 10% phosphoric acid (RICCA Chemical Co., catalog number 5850-16). The absorbance at 450 nm (A450) was measured using a FlexStation 3 plate reader (Molecular Devices). Plots of A450 versus test compound concentration and IC50 determinations were made using GraphPad Prism 6. The number of assays run (n) for each compound is recorded in the following table.

[1] = biological target: T2, carbohydrate recognition domain of human galectin-3 (Galectin-3-CRD) (Homo sapiens, UniProt P17931); assay: Galectin-3 activity microscale thermophoresis assay; type: binding; settings: label-free MST, 20 nM galectin-3-CRD; average of all assays (± standard deviation), each assay in triplicate
T2 construct: The carbohydrate recognition domain of human galectin-3 (Servesto Galectin-3-CRD) was diluted; purchased Servesto
Protocol: The carbohydrate recognition domain of human galectin-3 (Servesto Galectin-3-CRD) was diluted with PBS+0.1% F127 to 40 nM. Separately, a 40 uM stock of Compound 45 in DMSO was diluted down to 4 uM in PBS+0.1% F127 and serially diluted in sixteen steps using a dilution factor of 1 to 2 in 10% DMSO+PBS+0.1% F127. To each sample in the serial dilution of Compound 45, 10 ul of 40 nM Galectin-3-CRD was added, yielding final concentrations of 20 nM galectin-3-CRD and 5% DMSO+PBS+0.1% F127. NT.LabelFree Zero background Standard Treated Capillaries were filled with the prepared solutions then loaded into the Monolith NT Label-Free MST instrument. The reaction was measured with 100% excitation power of LED and medium (40%) MST power. Binding curves and Kd values were generated using MO affinity analysis. Each assay was run in triplicate. Some compounds were subjected to more than one assay run in triplicate.

T1 sequence (P17931 whole entry): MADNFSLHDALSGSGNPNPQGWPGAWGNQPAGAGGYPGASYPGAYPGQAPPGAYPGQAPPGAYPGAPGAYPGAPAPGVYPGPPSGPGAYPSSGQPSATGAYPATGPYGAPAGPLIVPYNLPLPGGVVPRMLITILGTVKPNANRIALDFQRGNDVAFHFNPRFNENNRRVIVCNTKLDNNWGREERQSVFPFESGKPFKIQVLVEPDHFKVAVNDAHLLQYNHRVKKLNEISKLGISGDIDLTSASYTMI
T2 sequence (P17931 118-248 limits assumed): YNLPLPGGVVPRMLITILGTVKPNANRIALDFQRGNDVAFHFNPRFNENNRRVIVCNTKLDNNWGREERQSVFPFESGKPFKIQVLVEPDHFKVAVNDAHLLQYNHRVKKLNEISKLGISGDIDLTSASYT

Structure (SMILES)	IC50 (galectin-3)	Kd [1]
[2H]C([2H])([2H])OC1C(n2cc(-c3cc(F)c(F)c(F)c3)nn2)[C@@H](O)C(CO)O[C@H]1[C@H](OCc1ccc(Br)cc1)C(=O)NC1CC1(F)F (some centres unmarked) [Compound 62]	826 nM	11 nM
COC1C(n2cc(-c3cc(F)c(F)c(F)c3)nn2)[C@@H](O)C(CO)O[C@H]1[C@H](OCc1ccc(Br)cc1)C(=O)OC(C)C (some centres unmarked) [Compound 43]	103 nM	12 nM
COC1C(n2cc(-c3cc(F)c(F)c(F)c3)nn2)[C@@H](O)C(CO)O[C@H]1[C@H](OCc1ccc(Br)cc1)C(=O)NC1CC1 (some centres unmarked) [Compound 49]	116 nM	18 nM
[2H]C([2H])([2H])OC1C(n2cc(-c3cc(F)c(F)c(F)c3)nn2)[C@@H](O)C(CO)O[C@H]1[C@H](OCc1ccc(Br)c(F)c1)C(=O)NC(C)C (some centres unmarked) [Compound 61]	771 nM	10 nM
CCNC(=O)[C@@H](OCc1ccc(Br)cc1)[C@@H]1OC(CO)[C@H](O)C(n2cc(-c3cc(F)c(F)c(F)c3)nn2)C1OC (some centres unmarked) [Compound 69]	269 nM	32 nM
COCCCNC(=O)[C@@H](OCc1ccc(Br)cc1)[C@@H]1OC(CO)[C@H](O)C(n2cc(-c3cc(F)cc(F)c3)nn2)C1OC (some centres unmarked) [Compound 21]	474 nM	33 nM
COCCCN(C)C(=O)[C@@H](OCc1ccc(Br)cc1)[C@@H]1OC(CO)[C@H](O)C(n2cc(-c3cc(F)cc(F)c3)nn2)C1OC (some centres unmarked) [Compound 22]	1490 nM	83 nM
COCCCNC(=O)[C@@H](OCc1ccc(Br)cc1)[C@@H]1OC(CO)[C@H](O)C(n2cc(-c3cc(F)cc(F)c3)nn2)C1O (some centres unmarked) [Compound 35]	391 nM	21 nM
CC(C)NC(=O)[C@@H](OCc1ccc(Br)cc1)[C@@H]1OC(CO)[C@H](O)C(n2cc(-c3cc(F)c(F)c(F)c3)nn2)C1O (some centres unmarked) [Compound 44]	291 nM	12 nM
[2H]C([2H])([2H])OC1C(n2cc(-c3cc(F)c(F)c(F)c3)nn2)[C@@H](O)C(CO)O[C@H]1[C@H](OCc1ccc(Br)cc1)C(=O)NC([2H])(C([2H])([2H])[2H])C([2H])([2H])[2H] (some centres unmarked) [Compound 46]	228 nM	2.9 nM
[2H]C([2H])([2H])OC1C(n2cc(-c3cc(F)c(F)c(F)c3)nn2)[C@@H](O)C(CO)O[C@H]1[C@H](OCc1ccc(Br)cc1)C(=O)NC(C)(C)C (some centres unmarked) [Compound 48]	972 nM	46 nM

Now from value to compound:

IC50 (galectin-3)	Kd [1]	Structure (SMILES)
526 nM	9 nM	COC1C(n2cc(-c3cc(F)c(F)c(F)c3)nn2)[C@@H](O)C(CO)O[C@H]1[C@H](OCc1ccc(Br)cc1)C(=O)N[C@@H](C)CF (some centres unmarked) [Compound 71]
1190 nM	25 nM	[2H]C([2H])([2H])OC1C(n2cc(-c3cc(F)c(F)c(F)c3)nn2)[C@@H](O)C(CO)O[C@H]1[C@H](OCc1ccc(Cl)c(F)c1)C(=O)NC(C)C (some centres unmarked) [Compound 90, reference compound]
416 nM	67 nM	[2H]C([2H])([2H])OC1C(n2cc(-c3cc(F)c(F)c(F)c3)nn2)[C@@H](O)C(CO)O[C@H]1[C@H](OCc1ccc(Cl)cc1)C(=O)NC(C)C (some centres unmarked) [Compound 88, reference compound]
938 nM	21 nM	[2H]C([2H])([2H])OC1C(n2cc(-c3cc(F)c(F)c(F)c3)nn2)[C@@H](O)C(CO)O[C@H]1[C@H](OCc1ccc(Br)cc1)C(=O)NC1(CO)CC1 (some centres unmarked) [Compound 75]
216 nM	20 nM	[2H]C([2H])([2H])OC1C(n2cc(-c3cc(F)c(F)c(F)c3)nn2)[C@@H](O)C(CO)O[C@H]1[C@H](OCc1ccc(Br)cc1)C(=O)NC(C)(C)CO (some centres unmarked) [Compound 74]
397 nM	12 nM	COCCCNC(=O)[C@@H](OCc1ccc(Cl)cc1)[C@@H]1OC(CO)[C@H](O)C(n2cc(-c3cc(F)c(F)c(F)c3)nn2)C1OC (some centres unmarked) [Compound 85, reference compound]
197 nM	9 nM	COC1C(n2cc(-c3cc(F)c(F)c(F)c3)nn2)[C@@H](O)C(CO)O[C@H]1[C@H](OCc1ccc(Br)cc1)C(=O)NC(CF)CF (some centres unmarked) [Compound 72]
184 nM	0.4 nM	CC(C)OC(=O)[C@@H](OCc1ccc(Cl)cc1)[C@@H]1OC(CO)[C@H](O)C(n2cc(-c3cc(F)c(F)c(F)c3)nn2)C1O (some centres unmarked) [Compound 86, reference compound]
427 nM	70 nM	COC1C(n2cc(-c3cc(F)c(F)c(F)c3)nn2)[C@@H](O)C(CO)O[C@H]1[C@H](OCc1ccc(Cl)cc1)C(=O)NC(C)C (some centres unmarked) [Compound 89, reference compound]
724 nM	20 nM	COC1C(n2cc(-c3cc(F)c(F)c(F)c3)nn2)[C@@H](O)C(CO)O[C@H]1[C@H](OCc1ccc(Cl)cc1)C(=O)OC(C)C (some centres unmarked) [Compound 87, reference compound]
2910 nM	570 nM	COC1C(n2cc(-c3cc(F)c(F)c(F)c3)nn2)[C@@H](O)C(CO)O[C@H]1[C@H](OCc1ccc(Cl)cc1)C(=O)N(C)C (some centres unmarked) [Compound 83, reference compound]
